{"source": "patent US11419913B2", "about": "“Pharmaceutical compositions for inhibiting inflammatory cytokines” (S.I.S. SHULOV INNOVATIVE SCIENCE LTD., priority 2018, dated 2022)", "key": {"TNF alpha": {"tested_on": "TNF alpha", "assay": "ZEP3 pretreatment, expression of TNF alpha by LPS treated macrophages", "type": "cell-based, mouse", "conditions": "ZEP3 50 μg/mL 1 hour before LPS 100 ng/mL", "protocol": "Macrophages originating from C57BL/6 mice were cultured at a density of 200,000 cells/mL in a 24-well plate (500 μl wells) and placed in a 37° C., 5% CO2 Incubator overnight. Following the overnight incubation media were replaced with fresh media containing 50 μg/ml ZEP3. Following 1-hour incubation 100 ng/mL LPS was added to the appropriate wells, the plates were incubated for additional 24 hours, then the amount of TNF alpha in each well was measured."}, "IL-6": {"tested_on": "IL-6", "assay": "IL-6 in corneal epithelial cell culture dry eye disease model", "type": "cell-based, human", "protocol": "(§1) The anti-inflammatory effect of the peptides in experimental corneal inflammation was tested in a cell culture model using various inflammasome inducers such as LPS, 4-HNE, Nigericin and others to model a dry-eye-disease (DED). Using a dose-response model, human primary corneal epithelial cells were pre-treated with the peptides followed by exposure to DED inducers. Expression of IL-6 was measured as well as cell viability, ROS production.\n(§2) Human primary Corneal Epithelial Cells (PCS-700-010; HCECs) were treated with ZEP3 at concentrations ranging from 3 to 12 μg/ml for 2 hours then exposed to LPS, 4-HNE or Nigericin for 24 hours. Following incubation, the levels of the pro-inflammatory cytokine IL-6, cell viability and reactive oxygen species (ROS) production in the cell cultures were measured."}, "[1]": {"tested_on": "Reactive Oxygen Species (ROS)", "assay": "ROS production in corneal epithelial cell culture dry eye disease model", "type": "cell-based, human", "protocol": "as §1, §2"}, "[2]": {"tested_on": "Human primary Corneal Epithelial Cells", "assay": "Cell viability (LDH assay) in corneal epithelial cell culture dry eye disease model", "type": "cell-based", "protocol": "as §1, §2"}, "IFNγ": {"tested_on": "IFNγ", "assay": "IFN-γ production in LPS-stimulated human PBMCs", "type": "cell-based", "conditions": "ZEP3 40, 100 and 150 μg/ml, 1 hr pre-treatment, LPS 24 hours; 4 donors (FIG. 9)", "protocol": "(§3) The effect of the peptide ZEP3 (SEQ ID NO: 1) on cytokine production was evaluated in an in vitro human model of inflammation. Human Peripheral Blood Mononuclear Cells (PBMCs) were stimulated using Lipopolysaccharide (LPS) to produce cytokines.\n(§4) Method: Briefly, cryopreserved human PBMCs of four healthy non-smokers, not on any corticosteroids or other inflammatory drugs, were grown in RPMI 1640 with 10% heat inactivated fetal bovine serum (FBS), 100 U/ml penicillin and 100 μg/mL streptomycin (complete growth medium, CGM).\n(§5) Human PBMCs were thawed and plated for all groups (1-6, Table 7), and rested for 1 hour before treatment. […] 24 hours post LPS addition, Almar Blue fluorescent at 585 nm (correlating with cell viability), is measured and supernatant is collected for cytokine determination. […]\n(§6) Detailed method: cells were thawed according to manufacturer's instructions, washed in CGM and assessed for viability using trypan blue staining. […] At 24 hours post LPS stimulation, plates were read for assessment of cell viability and cell culture supernatants were harvested and stored at −80° C. for cytokine analysis. […] Cytokine production and percentage of sample stimulation vs. the average of the stimulation control were calculated."}, "IL-10": {"tested_on": "IL-10", "assay": "IL-10 production in LPS-stimulated human PBMCs", "type": "cell-based", "conditions": "ZEP3 40, 100 and 150 μg/ml, 1 hr pre-treatment, LPS 24 hours; 4 donors", "protocol": "as §3, §4, §5, §6"}, "IL-1B": {"tested_on": "IL-1B", "assay": "IL-1B production in LPS-stimulated human PBMCs", "type": "cell-based", "conditions": "ZEP3 40, 100 and 150 μg/ml, 1 hr pre-treatment, LPS 24 hours; 4 donors", "protocol": "as §3, §4, §5, §6"}, "RANTES": {"tested_on": "RANTES", "assay": "RANTES production in LPS-stimulated human PBMCs", "type": "cell-based", "conditions": "ZEP3 40, 100 and 150 μg/ml, 1 hr pre-treatment, LPS 24 hours; 4 donors (FIG. 12)", "protocol": "as §3, §4, §5, §6"}, "IL-1beta": {"tested_on": "IL-1beta", "assay": "Expression of IL-1 beta by Nigericin-activated macrophages", "type": "cell-based, mouse", "set-up": "IL-1beta: unit not given here", "conditions": "ZEP4 50 μg/mL, LPS 100 ng/mL, Nigericin 20 mM", "protocol": "Macrophage cells originating from C7BL/6 mice were cultured at a density of 200,000 cells/mL in a 24-well plate (500 μl wells) and incubated at 37° C. and […] overnight. Following the overnight incubation, media were replaced with fresh media containing 100 ng/mL LPS. Three hours later, the LPS-containing media were replaced with fresh media containing 50 μg/ml ZEP4 to treatment wells. Following one-hour incubation, Nigericin (20 mM) aliquots were added to the ZEP4 treated and LPS control wells. The plates were incubated for additional 24 hour and the amount of IL-1beta in each well was measured. Reduction in […] production in the treatment group was calculated relative to cells treated with LPS and nigericin (LPS+N)."}}, "note": "Where a SMILES comes first, the peptide text is derived from it. [ ]: non-standard residue; d: D form. The star is where a group is joined. pGlu = O=C1CC[C@@H](C(=O)O)N1; Octanoyl = CCCCCCCC(=O)*", "data": [{"compound": "CCCCCCCC(=O)NCCCC[C@H](NC(=O)[C@H](Cc1c[nH]c2ccccc12)NC(=O)[C@H](CC(N)=O)NC(=O)[C@@H]1CCC(=O)N1)C(=O)O", "note": "[ZEP3, pGlu-Asn-Trp-Lys(Octanoyl)-OH] ([pGlu]NWK(Octanoyl)-OH)", "values": [{"measurement": "TNF alpha", "setting": "TNF alpha; 24 hours", "value": 101.2, "unit": "pg/mL"}, {"measurement": "% reduction of TNF alpha", "setting": "TNF alpha; vs LPS control", "value": 46.7, "unit": "%"}, {"measurement": "level of IL-6 in cell culture", "setting": "IL-6; HCECs pre-treated with ZEP3 (3 to 12 μg/ml, 2 hours), exposed to 4-HNE for 24 hr (FIG. 7)", "value": "38.1 ± 1.37", "unit": "pg/mL"}, {"measurement": "reduction of IL-6 level", "setting": "IL-6; ZEP3 treated vs untreated cell culture, 4-HNE 24 hr (FIG. 7)", "value": 27.4, "unit": "%"}, {"measurement": "level of ROS in cell culture", "setting": "[1]; HCECs pre-treated with ZEP3, exposed to 4-HNE for 24 hours, DCFDA kit (FIG. 8)", "value": "13000±800", "unit": "RFU"}, {"measurement": "reduction of ROS level", "setting": "[1]; ZEP3 treated vs untreated cell culture, 4-HNE 24 hours (FIG. 8)", "value": 51.9, "unit": "%"}, {"measurement": "cell death density", "setting": "[2]; HCECs treated with ZEP3 and exposed to inflammation inducer, LDH assay (FIG. 6)", "value": "3.625±1.092", "unit": "%"}, {"measurement": "reduction of cell death density", "setting": "[2]; ZEP3 treated vs untreated cell culture (FIG. 6)", "value": 82.8, "unit": "%"}, {"measurement": "interferon gamma (IFNγ) production", "setting": "IFNγ", "value": "significant reduction"}, {"measurement": "IL-10 production (FIG. 10)", "setting": "IL-10", "value": "significant reduction"}, {"measurement": "IL-1B production", "setting": "IL-1B", "value": "significant reduction"}, {"measurement": "RANTES production", "setting": "RANTES", "value": "significant reduction"}]}, {"compound": "C[C@@H](O)[C@H](NC(=O)[C@H](Cc1c[nH]c2ccccc12)NC(=O)[C@H](CC(N)=O)NC(=O)[C@@H]1CCC(=O)N1)C(=O)O", "note": "[ZEP4, pGlu-Asn-Trp-Thr-OH] (HELM PEPTIDE1{[Glp].N.W.T}$$$$V2.0)", "values": [{"measurement": "IL-1beta", "setting": "IL-1beta; 24 hour", "value": 157.1}, {"measurement": "% reduction of IL-1beta", "setting": "IL-1beta; relative to LPS and nigericin (LPS+N)", "value": 53.8, "unit": "%"}]}]}
